The text below walks through data of patent US7144893B2, “4-aryl quinols and analogs thereof as therapeutic agents” (Cancer Research Technology Limited, priority 2001, dated 2006).

Values after ≈ are worked out from the molar mass of the structure shown.

Data set [1] deals with 60 human cancer cell lines. Kind of data set: cells. The format is cell-based. The note with it: Homo sapiens; for CC50: 60 cell, 48 h, read-out: mean LC50; for GI50: mean over NCI 60 cell panel, 48 h drug exposure. The protocol:
(§1) Compounds were tested for in vitro activity (48 h drug exposure) across 60 human cancer cell lines through the National Cancer Institute (NCI) Developmental Therapies Screening Program (Boyd et al., 1995).

A further data set relates to colon sub-panel. Kind of data set: cells. The format is cell-based. As to conditions: Homo sapiens, SW-620, read-out: mean LC50 in colon sub-panel. The protocol:
as §1

In the next data set the test system is renal sub-panel. Kind of data set: cells. Format: cell-based. As to conditions: Homo sapiens, 60 cell, read-out: mean LC50 in renal sub-panel. On the procedure:
as §1

For another data set, the system named is HCT 116 colon carcinoma. Kind of data set: Growth inhibitory assay (MTT, 72 hr). The format is cell-based. As to conditions: Homo sapiens, 72 hr exposure. The protocol: (§2) Compounds were prepared as 10 mM top stocks, dissolved in DMSO, and stored at 4° C., protected from light, for a maximum period of 4 weeks. Human derived cell lines (HCT 116, HT29 colon carcinoma; MCF-7 (ER+), MDA 468 (ER−) breast carcinoma; A549 lung adenocarcinoma) were routinely cultivated at 37° C. in an atmosphere of 5% CO2 in RPMI 1640 medium supplemented with 2 mM L-glutamine and 10% fetal calf serum and subcultured twice weekly to maintain continuous logarithmic growth. Cells were seeded into 96-well microtiter plates at a density of 5×10^3 per well and allowed 24 hr to adhere before drugs were introduced (final concentration 0.1 nM–100 μM, n=8). Serial drug dilutions were prepared in medium immediately prior to each assay. At the time of drug addition and following 72 hr exposure, MTT was added to each well (final concentration 400 µg/mL). Incubation at 37° C. for 4 hr allowed reduction of MTT by mitochondrial dehydrogenase to an insoluble formazan product. Well contents were aspirated and formazan solubilized by addition of DMSO:glycine buffer (pH 10.5) (4:1). Absorbance was measured using an Anthos Labtec systems plate reader at 550 nm, and used as a measure of cell viability; thus cell growth or drug toxicity was determined.

The next data set has as its system HT29 colon carcinoma. Kind of data set: Growth inhibitory assay (MTT, 72 hr). Format: cell-based. As to conditions: Homo sapiens, HT-29, 72 hr exposure. The protocol:
as §2

In data set [2] the test system is MCF-7 (ER+) breast carcinoma. Kind of data set: Growth inhibitory assay (MTT, 72 hr). Format: cell-based. As to conditions: Homo sapiens, MCF7, 72 hr exposure. On the procedure: as §2
Data set [3] deals with MDA 468 (ER−) breast carcinoma. Kind of data set: Growth inhibitory assay (MTT, 72 hr). The format is cell-based. The note with it: Homo sapiens, 72 hr exposure. On the procedure: as §2
Data set [4] concerns Mycobacterium tuberculosis H37Rv (ATCC 27294). Kind of data set: Microplate Alamar Blue Assay (MABA), TAACF primary screening. The format is cell-based. As to conditions: lowest concentration effecting a reduction in fluorescence of 90% relative to controls. The text has this: Compounds were submitted to the Tuberculosis Antimicrobial Acquisition and Coordinating Facility (TAACF) for testing as antimycobacterial drugs.
Compounds were subjected to in vitro evaluation for antimycobacterial activity.
See, for example, Collins et al., 1997.

Take `O=C1C=CC(O)(c2nc3ccccc3s2)C(Cl)=C1` (stereo not drawn) [Q06, 4-(Benzothiazol-2-yl)-3-chloro-4-hydroxy-2,5-cyclohexadien-1-one]: in data set [1], the CC50 stood at 6.31 µM and growth was halved (GI50) at 460 nM. Further, in the data set with colon sub-panel, the LC50 worked out at 2.31 µM. For the same compound, in the data set with renal sub-panel, the mean LC50 was found to be 1.8 µM. The compound also returned an IC50 with HCT 116 colon carcinoma of 14900 nM. This compound came in with an IC50 with HT29 colon carcinoma of 26300 nM.
As for `O=C1C=CC(O)(c2ccc3ccccc3c2)C=C1` [Q08, 4-(Naphth-2-yl)-4-hydroxy-2,5-cyclohexadien-1-one], the CC50 in data set [1] is 11.7 µM. In addition, the GI50 in data set [1] is 810 nM. The LC50 in the data set on colon sub-panel turned out to be 6.58 µM. Also, the mean LC50 with renal sub-panel was found to be 4.68 µM. Also, the IC50 is 820 nM in the data set on HCT 116 colon carcinoma, 2500 nM in the data set with HT29 colon carcinoma, 1300 nM in data set [2] and 1400 nM in data set [3].
As for `O=C1C=CC(O)(c2cccc3ccccc23)C=C1` [Q09, 4-(Naphth-1-yl)-4-hydroxy-2,5-cyclohexadien-1-one], the CC50 in data set [1] was 25.7 µM. For the same compound, growth in data set [1] was halved (GI50) at 1820 nM. Further, in the data set with colon sub-panel, the LC50 was determined as 12.2 µM. In the data set on renal sub-panel, the mean LC50 came to 17 µM. The IC50 is 420 nM in the data set on HCT 116 colon carcinoma, 1360 nM in the data set with HT29 colon carcinoma, 780 nM in [2] and 1770 nM in [3].
Consider `O=C1C=CC(O)(c2cnc3ccccc3c2)C=C1` [Q10, 4-(Quinolin-3-yl)-4-hydroxy-2,5-cyclohexadien-1-one], for which the CC50 in data set [1] is 15.8 µM. In data set [1], this compound had a GI50 of 1070 nM. The LC50 in the data set on colon sub-panel amounted to 10.2 µM. Moreover, the mean LC50 with renal sub-panel was 9.66 µM. In addition, the IC50 was found to be 720 nM with HCT 116 colon carcinoma, 970 nM in the data set with HT29 colon carcinoma, 770 nM in data set [2] and 1700 nM in data set [3]. The compound also gave an MIC in data set [4] of 3.13 µg/mL (≈ 13.2 µM).
For the compound `O=C1C=CC(O)(c2ccccc2)C=C1` [Q11, 4-Phenyl-4-hydroxy-2,5-cyclohexadien-1-one], in data set [1], the CC50 stood at 21.9 µM and the GI50 is 2290 nM. Also, in the data set with colon sub-panel, the LC50 is 10.6 µM. The mean LC50 in the data set with renal sub-panel was determined as 16.7 µM. The same compound registered an IC50 in the data set with HCT 116 colon carcinoma of 2220 nM. Also, the IC50 with HT29 colon carcinoma came out at 3630 nM.
Turning to `O=C1C=CC(O)(c2ccccn2)C=C1` [Q12, 4-(Pyridin-2-yl)-4-hydroxy-2,5-cyclohexadien-1-one], in [1], the CC50 turned out to be 20.4 µM. In data set [1], this compound registered a GI50 of 1910 nM. Moreover, the LC50 with colon sub-panel was 6.9 µM. Further, the mean LC50 in the data set on renal sub-panel was determined as 11.3 µM. Also, the IC50 with HCT 116 colon carcinoma is 547 nM; in the data set with HT29 colon carcinoma, 460 nM; in data set [2], 720 nM; in [3], 1500 nM. This compound also returned an MIC in data set [4] of 6.25 µg/mL (≈ 33.4 µM).
For `O=C1C=CC(O)(c2cccs2)C=C1` [Q13, 4-(Thiophen-2-yl)-4-hydroxy-2,5-cyclohexadien-1-one], the CC50 in [1] worked out at 30.9 µM. This compound also came in with a GI50 in [1] of 1780 nM. Also, the LC50 with colon sub-panel is 32.5 µM. In addition, the mean LC50 in the data set with renal sub-panel came out at 14.4 µM. The IC50 was found to be 663 nM in the data set on HCT 116 colon carcinoma, 1250 nM with HT29 colon carcinoma, 569 nM in [2] and 719 nM in data set [3]. In data set [4], this compound yielded an MIC of 6.25 µg/mL (≈ 32.5 µM).
`O=C1C=CC(O)(c2nccs2)C=C1` [Q14, 4-(Thiazol-2-yl)-4-hydroxy-2,5-cyclohexadien-1-one]: the CC50 in [1] was determined as 14.5 µM. This compound gave a GI50 in data set [1] of 1350 nM. For the same compound, the LC50 in the data set on colon sub-panel worked out at 6.19 µM. Further, the mean LC50 in the data set on renal sub-panel amounted to 9.17 µM. Moreover, the IC50 with HCT 116 colon carcinoma came out at 618 nM; in the data set with HT29 colon carcinoma, 719 nM. Inhibition of growth in data set [4] (MIC) required 3.13 µg/mL (≈ 16.2 µM).
In the case of `COC1(c2ccccc2)C=CC(=O)C=C1` [Q16, 4-Methoxy-4-phenyl-2,5-cyclohexadien-1-one], the GI50 in data set [1] was found to be 25400 nM.
Consider `CCOC1(c2nc3ccccc3s2)C=CC(=O)C=C1` [Q18, 4-(Benzothiazol-2-yl)-4-ethoxy-2,5-cyclohexadien-1-one], for which the melting point turned out to be 59 °C.
`CC(=O)OC1(c2ccccc2)C=CC(=O)C=C1` [Q21, 4-acetoxy-4-phenyl-2,5-cyclohexadien-1-one]: the GI50 in [1] is 4790 nM.
Turning to `CCSC1CC(=O)CC(SCC)C1(O)c1ccccc1` (stereo not drawn) [Q22, 3,5-Di(ethylthio)-4-hydroxy-4-phenylcyclohexan-1-one], the GI50 in data set [1] was 12600 nM.
With `O=C1CC(Sc2ccccc2)C(O)(c2ccccc2)C(Sc2ccccc2)C1` (stereo not drawn) [Q23, 4-Hydroxy-4-phenyl-3,5-di(phenylthio)-cyclohexan-1-one], in data set [1], growth was halved (GI50) at 1820 nM.
Same read-out and setting: the result for `O=C1CC(SCc2ccccc2)C(O)(c2ccccc2)C(SCc2ccccc2)C1` (stereo not drawn) [Q24, 4-Hydroxy-4-phenyl-3,5-di[(phenyl)methylthio]-cyclohexan-1-one] reads 3980 nM.
As for `O=C1CC(Sc2ccccc2)C(O)(c2nc3ccccc3s2)C(Sc2ccccc2)C1` (stereo not drawn) [Q25], in [1], halving of growth (GI50) required 590 nM. The compound also gave an MIC in [4] of 1.56 µg/mL (≈ 3.36 µM).
Consider `NC(CCC(=O)NC(CSC1CC(=O)C=CC1(O)c1nc2ccccc2s1)C(=O)NCC(=O)O)C(=O)O` (stereo not drawn) [Q28, 4-Benzothiazol-2-yl-5-S-glutathionyl-4-hydroxy-cyclohex-2-enone], for which it took 2190 nM to inhibit growth in [1] by half (GI50).
For the compound `COC1(c2nc3ccccc3s2)C=CC(=NS(=O)(=O)c2ccc(C)cc2)C=C1` (stereo not drawn) [Q29, N-[4-methoxy-4-(benzothiazol-2-yl)cyclohexa-2,5-dienylidene]-4-methylbenzenesulphonamide], in [1], the CC50 worked out at 83.2 µM and the GI50 was found to be 15500 nM. For the same compound, in the data set with colon sub-panel, the LC50 was over 100 µM. Also, in the data set with renal sub-panel, the mean LC50 was over 100 µM.
Regarding `COC1(c2nc3ccc(C)cc3s2)C=CC(=NS(=O)(=O)c2ccc(C)cc2)C=C1` (stereo not drawn) [Q30, N-[4-methoxy-4-(6-methylbenzothiazol-2-yl)cyclohexa-2,5-dienylidene]4-methylbenzenesulphonamide], in data set [1], the CC50 came out at 19.5 µM and growth was halved (GI50) at 1200 nM. The LC50 in the data set on colon sub-panel amounted to 9.92 µM. Further, the mean LC50 with renal sub-panel came out at 10.6 µM.
For the compound `COc1ccc2nc(C3(OC)C=CC(=NS(=O)(=O)c4ccc(C)cc4)C=C3)sc2c1` (stereo not drawn) [Q31, N-[4-methoxy-4-(6-methoxybenzothiazol-2-yl)cyclohexa-2,5-dienylidene]-4-methylbenzenesulphonamide], in [1], the CC50 came out at 18.6 µM and the GI50 was determined as 1910 nM. In addition, the LC50 with colon sub-panel is 13.2 µM. The mean LC50 in the data set on renal sub-panel worked out at 11.2 µM.
For `COC1(c2nc3ccc(F)cc3s2)C=CC(=NS(=O)(=O)c2ccc(C)cc2)C=C1` (stereo not drawn) [Q32, N-[4-methoxy-4-(6-fluorobenzothiazol-2-yl)cyclohexa-2,5-dienylidene]-4-methylbenzenesulphonamide] the same measures were 30.2 µM, 1740 nM, 25.6 µM and 19.1 µM.
`COC1(c2nc3c(F)cccc3s2)C=CC(=NS(=O)(=O)c2ccc(C)cc2)C=C1` (stereo not drawn) [Q33, N-[4-methoxy-4-(4-fluorobenzothiazol-2-yl)cyclohexa-2,5-dienylidene]-4-methylbenzenesulphonamide]: in [1], the CC50 is 27.5 µM and the GI50 came to 2570 nM. In addition, in the data set with colon sub-panel, the LC50 is 26.9 µM. For the same compound, in the data set on renal sub-panel, the mean LC50 amounted to 14.4 µM.
For `O=C1CCC(O)(c2nc3ccccc3s2)CC1` [Q43, 4-(Benzothiazol-2-yl)-4-hydroxycyclohexanone] the same measures were over 100 µM, over 100000 nM, over 100 µM and over 100 µM.
In the same order, the values of `CC1=CC(O)(c2nc3ccccc3s2)C=C(C)C1=O` [Q44, 4-(benzothiazol-2-yl)-4-hydroxy-2,6-dimethylcyclohexa-2,5-dien-1-one] are over 100 µM, 38200 nM, over 100 µM and over 100 µM.
For the compound `O=C1/C(=C\c2ccccc2)CC(O)(c2nc3ccccc3s2)C/C1=C/c1ccccc1` (stereo not drawn) [Q45, 4-(benzothiazol-2-yl)-2,6-bis(phenylmethinyl)-4-hydroxycyclohexanone], in [1], the CC50 is 47.9 µM and the GI50 is 2690 nM. Further, the LC50 in the data set with colon sub-panel was 17.4 µM. The mean LC50 with renal sub-panel came to 37.2 µM.
In the same order, the values of `O=C1C=CC(O)(c2cc3ccccc3s2)c2ccccc21` (stereo not drawn) [Q46, 4-Benzothiophen-2-yl-4-hydroxy-4H-naphth-1-one] are 70.8 µM, 2290 nM, over 100 µM and over 100 µM.
In the same order, the values of `O=C1C=CC(O)(c2cc3ccccc3o2)c2ccccc21` (stereo not drawn) [Q47, 4-(Benzofuran-2-yl)-4-hydroxy-4H-naphth-1-one] are 7.76 µM, 740 nM, 7.76 µM and 6.48 µM.
